Assays:
[1] = test system: HIV envelope protein gp120; assay: 2G12 and b12 binding to gp120 expressed in CHO cells, capture ELISA; assay type: cell-based
Method: In the following example, the activity of NB-DNJ as measured by the inhibition of glycan processing on the HIV envelope protein, gp120, is determined following expression in CHO cells in the presence of free or DCPP liposome-encapsulated NB-DNJ.
CHO cells expressing a soluble form of HIV gp120 were incubated in the presence of free NB-DNJ with concentrations ranging between 0-5 mM, or with liposomes encapsulating NB-DNJ with final concentrations in the medium ranging between 0 and 750 nM. Cells were left to incubate for 5 days before cellular supernatant containing the treated gp120 was collected. To measure the inhibition of glycan processing on gp120 expressed in the presence of NB-DNJ (either free or in liposomes), the binding of the MAb 2G12 was determined by capture ELISA. 2G12 recognizes a cluster of mannose residues on the carbohydrate-rich surface of gp120, and loss of binding in the presence of NB-DNJ results from the retention of glucose on the oligomannose glycans that form the epitope. A loss of binding affinity, however, may also arise from a misfolding of the protein, and to distinguish between these two possibilities, the affinity of all samples for the neutralizing MAb, b12, is also measured. […] Soluble gp120 located in the cellular supernatant was captured in ELISA plates using the D7324 antibody (binds the C5 region of gp120) and treated with 10 μg/ml of either 2G12 or b12. The binding of both antibodies to NB-DNJ-treated samples was related to that for the untreated gp120, where data are expressed as percent binding and represent the mean±S.D. of triplicates from four separate experiments.

HIV-1 primary isolates = assay: p24 secretion of HIV-1-infected PBMCs, eight primary isolates; assay type: cell-based
Method: Clearance of HIV-1 primary isolates from infected human cells by NB-DNJ was assessed using phytohemagglutinin (PHA)-activated peripheral blood mononuclear cells (PBMCs) as indicator cells and the determination of p24 antigen production as the end point.
PBMCs from four normal (uninfected) donors were isolated, pooled, and stimulated with PHA (5 μg/ml) for 48 h followed by PHA plus interleukin-2 (40 U/ml) for 72 h in RPMI 1640 medium containing 10% heat-inactivated fetal bovine serum (FBS), 100 U of penicillin per ml, 100 μg of streptomycin per ml, and 2 mM L-glutamine. All experiments were performed in 96-well microtiter plates. To infect cells, 100 μl of PHA-activated PBMCs (5×10^5/ml) was added to each well, after which an equal volume containing 100 50% tissue culture infective doses (TCID50) of primary isolate stock was added. After an overnight incubation, the cells were washed three times with tissue culture medium, and finally re-suspended in medium containing the appropriate liposome treatment or free NB-DNJ. On day 7, approximately 10-30% of the culture volume containing secreted HIV-1 virions was used to infect naïve PBMCs for a second round of infection and treatment (volume transferred was calculated to be the volume necessary for the untreated control of that isolate to infect naïve cells at a TCID50=100). Rounds of treatment and infection of naïve cells were continued over four weeks, and at every time point cellular supernatant containing secreted virions was isolated and used in capture ELISAs to determine p24 concentration (measure of secretion). Additionally, supernatant isolated at each time point throughout treatment was used to infect naïve PBMCs (TCID50=100) for two weeks with no further treatment, which allowed for the observation of a rebound in viral activity.
PBMCs infected with 8 primary isolates (listed in Table 3) were incubated in the presence of free NB-DNJ (concentrations ranging 0-1 mM) or liposome-encapsulated NB-DNJ (0-3.75 μM, final lipid concentration of 50 μM).

CHO cells = assay: Liposome uptake (Rh-PE) and intracellular calcein dequenching; assay type: cell-based, Chinese hamster
Method: The effects of different DNJ compounds on the cellular uptake and intracellular release, when encapsulated inside DCPP liposomes, was determined by diluting compounds in 80-mM calcein and incorporating Rh-PE in liposome membranes as previously described, with the final liposome composition being DOPE:CHEMS:PEG-PE:Rh-PE (DCPP-Rh, 6:4:0.3:0.1) Liposomes encapsulating calcein alone, 10-μM DNJ, 1-mM DNJ, 10-μM NB-DNJ, 1-mM NB-DNJ, 10-μM NN-DNJ, or 1-mM NN-DNJ, were incubated with CHO cells for 45 min before liposomes were removed and cells were washed twice in 1×PBS. Cells were then analyzed in a fluorometer to measure calcein dequenching (λex=490 and λem=520 nm) and rhodamine fluorescence (λex=584 and λem=612 nm). Data represent the mean±S.D. obtained from triplicates of four independent experiments, where mean rhodamine fluorescence values reflect the binding and uptake of liposomes and the mean calcein fluorescence reflects the intracellular dequenching of the dye (i.e. dye released from liposomes into intracellular compartments). Results are expressed as the percent fluorescence measured following incubation with DNJ-containing liposomes as compared to the calcein/PBS-only liposome control (=100% on the x axis).
The calculated ratio of calcein to rhodamine fluorescence is taken as a measure of the amount of aqueous marker released per cell-associated liposome, and represents the efficiency of intracellular delivery.

ncp BVDV = assay: BVDV secretion from infected MDBK cells, real-time PCR; assay type: cell-based, bovine viral diarrhea virus; conditions: 750 nM, 3 days
Method: In a first study using the ncp strain of BVDV, NB-DNJ was added freely to the culture medium, so that final concentrations ranged between 0 and 750 nM. In separate incubations, NB-DNJ DCPP liposomes were added so that the final lipid concentration was 50 μM and final concentrations of NB-DNJ ranged between 0 and 750 nM. Experiments were carried out in duplicate in 6-well plates. The quantity of secreted BVDV viral particles was measured following 3 days of incubation. Virus secretion analysis was performed by quantitative PCR (real-time PCR) on viral RNA extracted from 500 μl of supernatant. Real-time PCR used primers directed against the ncp BVDV RNA where the forward primer sequence was […] (SEQ ID NO:1), and the reverse primer sequence was […] (SEQ ID NO:2). Results are expressed as the percentage of RNA copies present in treated samples as compared to the untreated control (=100% on the x axis).

[2] = 7.5 nM, liposome-mediated delivery
[3] = Human immunodeficiency virus 1, PBMC, free, three rounds of treatment, six isolates

CCCCN1C[C@H](O)[C@@H](O)[C@H](O)[C@H]1CO [NB-DNJ, N-butyl-1,5-dideoxy-1,5-imino-D-glucitol]
gp120 binding to 2G12 [1, 2]: 9.8±4.8% | gp120 binding to b12 [1, 2]: 96.3±3.2% | gp120 binding to 2G12 ([1]; 0.5-mM free in the medium): 1.2±0.1% | gp120 binding to b12 ([1]; 0.5-mM free in the medium): 100% | reduction in viral secretion (HIV-1 primary isolates; 1 mM free in medium, first week, most isolates): 30-40% | enhancement of antiviral activity, liposome vs free (HIV-1 primary isolates; DOPE:CHEMS:PEG-PE liposomes): 10^4-10^5 fold | IC50 (HIV-1 primary isolates; [3]): 400 µM | IC90 (HIV-1 primary isolates; [3]): 500 µM | final NB-DNJ concentration with antiviral activity similar to 500 μM free (HIV-1 primary isolates; encapsulated in DOPE:CHEMS:PEG-PE liposomes, all isolates): 3.75 to 37.5 nM | reduction in viral activity (HIV-1 primary isolates; free, all isolates): ≥ 90% | antiviral concentration (lowest to clear viral activity in all isolates) (HIV-1 primary isolates; free, four weeks treatment): 500 µM | Efficiency (calcein/rhodamine, AU) (CHO cells; 10 μM encapsulated in DCPP liposomes): 21.7 ± 1.5 AU | increase of efficiency of intracellular delivery (CHO cells; 10 μM in DCPP liposomes): approximately 2 fold | Efficiency (calcein/rhodamine, AU) (CHO cells; 1 mM encapsulated in DCPP liposomes): 28.4 ± 2.4 AU | increase of efficiency of intracellular delivery (CHO cells; 1 mM in DCPP liposomes): ~3 fold | increase in dequenched calcein (CHO cells; 1-mM formulation in DCPP-Rh liposomes): ~2.3 fold | increase in dequenched calcein (CHO cells; 10-μM formulation in DCPP-Rh liposomes): ~1.8 fold | decrease in number of secreted viral particles (ncp BVDV; DCPP liposome-mediated delivery): 2 fold | effect on number of secreted viral particles (ncp BVDV; free delivery): no effect
